Experimental data as given in patent publication US9220746B2, “Compounds and methods for treating bone disorders and controlling weight” (The University of North Carolina at Chapel Hill, priority 2009, dated 2015).

Legend:
adherent macrophages = assay: Osteoclast differentiation, tartrate resistant acid phosphatase staining; type: cell-based, mouse; settings: for osteoclast differentiation: macrophages of IGFBP-2 gene deleted Balb/c mice, mCSF, RANK ligand, TRAP stain day 7
Source text: The method for osteoclast differentiation is as follows: Balb/c mice in which the IGFBP-2 gene had been deleted (see V. DeMambro et al, Endocrinology, 149(5): 2051-2061 (2007)) were anesthetized and sacrificed using cervical dislocation. The femurs from each mouse were dissected free of soft tissue and the bone marrow aspirated by needle puncture. Cells were removed sterile and resuspended in DMEM with 10% fetal calf serum. The cells were centrifuged at 700×g and the cell pellet resuspended in medium and plated in 24 well plates at a concentration of 5000 cells/cm^2. The plates that are used are low adherence plates that have no additives to facilitate cell adherence. Under these conditions macrophages will adhere while other cells will not. The media is supplemented with mCSF 20 ng/ml. After 3 days the cells are removed from the plate and the adherent macrophages are exposed to fresh media containing 10% FBS and mCSF. This is repeated again after 3 days and then after an additional 3 days cells are trypsinized and replated in fresh plates at 6×10^4 cells/cm. At this time RANK ligand, 50 ng/ml, is added, although in some experiments concentrations as low as 10 ng/ml were utilized. Medium is changed at 3 and 6 days and on day 7 cells are stained for tartrate resistant acid phosphatase, a marker of osteoclast differentiation. IGFBP-2 was added at concentrations between 50 ng/ml and 500 mcg/ml. The peptide was added at 20 or 200 ng/ml.
For tartrate resistant acid phosphatase staining, a 1% solution is prepared and incubated with the cells for 30 min at room temperature. Cultures are then washed and cell number determined by manual counting.

3T3L1 = assay: Fat cell differentiation of 3T3L1 cells, oil red O staining; type: cell-based
Protocol: In some assays, fat cell data were obtained by using the cell line 3T3L1, which is used to study fat cell differentiation. These cells are grown as fat cell precursors. These cells are maintained in Hams F12 with fetal calf serum and 15 mM glutamine. To stimulate them to enter the fat cell differentiation pathway, isomethylbutylxanine, dexamethasone and insulin are added using concentrations of 0.5 mM IBMX 16.7 nM insulin and 0.1 uM dexamethasone. In some cases 100 ng/ml IGF-I was added instead of insulin. Three days after the addition, differentiation into adipocytes is apparent and is detected by oil red O staining.
To determine the effects of the peptide of SEQ ID NO:1, it was added at concentrations of 20 ng/ml, 200 ng/ml and 2 ug/ml. A detectable inhibition of adipocyte differentiation, as determined by a decrease in the number of oil red O positive cells, was detected using 20 ng/ml of peptide. The response was maximal at 200 ng/ml and not increased further by adding 2 mcg/ml.
For oil red O staining, a stock solution of […] isoproponol is prepared. 60 ml of solution is mixed with 40 ml of water and allowed to sit at room temperature for an hour and then filtered. The media is aspirated from the adipocyte cultures and cells are fixed in 1% formaldehyde. Formaldehyde is aspirated and the oil red O solution is added in an amount necessary to cover the cells, which are then left at room temperature for one hour. The stain is then removed and the plates are washed with distilled water and dried. Typically 60-70% of the cells stain positive after 3 days.

mouse metatarsal bones = assay: Ex vivo metatarsal explant bone growth and mineralization; type: cell-based; settings: for bone growth and calcification: metatarsals derived from IGFBP-2−/− mice, 20-200 ng/ml
Source text: This system uses an ex vivo explant system, therefore it is a transition between cultured cells and in vivo experiments. The bone forming tissue is removed directly from a mouse and then grown in organ culture for several days. The test additives can be added directly to the medium at any concentration in order to test for biological activity. The method is as follows: mouse metatarsal bones were isolated from newborn mice between days 0 and 3 after birth using the dissecting microscope. The middle three metatarsals were used for all experiments. Three metatarsals were incubated per well in a 24 well tissue culture dish in DMEM containing 0.5% bovine serum, […], 1 mM beta glycerol phosphate at 37° C. The medium was replaced one day later and the metatarsals are cultured for up to 10 days. Growth was measured by quantitative increase in size, both length and width of the bones using an inverted phase microscope with a built in micrometer scaling bar for measurements. Mineralization was assessed by the addition of calcein (500 ng/ml) to the medium for 2 hrs prior to tissue fixation. Fluorescent images were captured using a digital camera attached to an inverted microscope and quantifying calcein fluorescence under the appropriate […] stimulus. Bone and cartilage histology were measured by fixing the bones in 4% PFA overnight and storing at 70% ethanol, followed by […] embedding sectioning and staining. Sections were stained with H&E, Alizaran red or alkaline phosphatase. For analysis of proteins, the tissue was homogenized in Laemmli sample buffer and gels were run using standard SDS polyacrylamide gel electrophoresis and western blotting.

| serum concentration at which osteoclast differentiation was still detected in the presence of the peptide (adherent macrophages) | Molecule | osteoclast differentiation (adherent macrophages) | concentration at which inhibition of adipocyte differentiation (decrease in oil red O positive cells) was detectable (3T3L1; 3T3L1, added at 20 ng/ml, 200 ng/ml and 2 ug/ml) | concentration at which the response (inhibition of adipocyte differentiation) was maximal (3T3L1; 3T3L1, not increased further by 2 mcg/ml) | oil red O positive cells at maximum effect of the peptide (3T3L1; typically 60-70% of the cells stain positive after 3 days) | bone growth and calcification (mouse metatarsal bones) | effect on bone growth (mouse metatarsal bones; metatarsals from normal mice) | concentrations found to inhibit adipocyte differentiation (3T3L1; 3T3L1, tested in parallel) |
| --- | --- | --- | --- | --- | --- | --- | --- | --- |
| 0.5% | KHHLGLEEPKKLR (IGFBP-2 heparin binding domain-containing peptide sequence) [peptide of SEQ ID NO:1] | would not differentiate into osteoclasts without addition | 20 ng/mL | 200 ng/mL | < 20% | stimulated bone growth and calcification | modest additional stimulatory effect |  |
|  | IGFBP-2: Insulin-like growth factor binding protein-2, 36,000 dalton protein, purified from cellular conditioned medium (protein, UniProt P18065 36-325, looked up) Insulin-like growth …: AEVLFRCPPCTPERLAACGPPPVAPPAAVAAVAGGARMPCAELVREPGCGCCSVCARLEGEACGVYTPRCGQGLRCYPHPGSELPLQALVMGEGTCEKRRDAEYGASPEQVADNGDDHSEGGLVENHVDSTMNMLGGGGSAGRKPLKSGMKELAVFREKVTEQHRQMGKGGKHHLGLEEPKKLRPPPARTPCQQELDQVLERISTMRLPDERGPLEHLYSLHIPNCDKHGLYNLKQCKMSLNGQRGECWCVNPNTGKLIQGAPTIRGDPECHLFYNEQQEARGVHTQRMQ | would not differentiate into osteoclasts without addition |  |  |  | stimulated bone growth and calcification |  | 50 to 500 ng/mL |
